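How tested: cells in 96-well plates exposed to compound for 48 hours at five concentrations. GI50 = concentration required for 50% inhibition of growth.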 Activity calls are given as the source filed them. Rule as the data show it: active = GI50 up to about 1.1 µM and inactive = higher.
How the values were obtained:
Assay in all cases: NCI-60 cell line screen, 48 h
DMS-114 = test system: DMS-114
RXF 631 = test system: RXF 631
DMS-273 = test system: DMS-273
HOP-18 = test system: HOP-18
KM-20L2 = test system: KM-20L2
LXFL 529 = test system: LXFL 529
M19-MEL = test system: M19-MEL
XF498 = test system: XF498
SNB-78 = test system: SNB-78

With `CC(C)CC1CC2C(=O)N(c3ccccc3)C(=O)C2c2[nH]c3ccccc3c21` (stereo not drawn) the GI50 (DMS-114) was 15.9 µM (inactive), the GI50 (RXF 631) was 15.2 µM (inactive) and the GI50 (DMS-273) was 26.9 µM (inactive). For the same molecule, the GI50 (HOP-18) was 11.4 µM (inactive), the GI50 (KM-20L2) was > 100 µM (inactive) and the GI50 (LXFL 529) was 60 µM (inactive). The GI50 (M19-MEL) was 34.2 µM (inactive), the GI50 (XF498) was 20.3 µM (inactive) and the GI50 (SNB-78) was > 74.3 µM (inactive).
`C=C(CN(CC(=C)C(=O)c1ccccc1)C(C)(C)C)C(=O)c1ccccc1` was tested, and the GI50 (DMS-114) was 16.9 µM (inactive), the GI50 (DMS-273) was 16.7 µM (inactive) and the GI50 (HOP-18) was 5.42 µM (inactive). For the same molecule, the GI50 (KM-20L2) was 18.7 µM (inactive), the GI50 (LXFL 529) was 3.84 µM (inactive) and the GI50 (M19-MEL) was 15.7 µM (inactive). The GI50 (XF498) was 6.58 µM (inactive) and the GI50 (SNB-78) was 25.5 µM (inactive).
With `CCOC(=O)c1cc2c3c(c(O)c(OC)c2s1)N(C(=O)c1cc2c4c(c(O)c(OC)c2s1)N(C(C)=O)CC4)CC3` the GI50 (DMS-114) was > 100 µM (inactive), the GI50 (RXF 631) was 9.08 µM (inactive) and the GI50 (DMS-273) was 61.8 µM (inactive). The GI50 (HOP-18) was > 100 µM (inactive), the GI50 (KM-20L2) was > 100 µM (inactive) and the GI50 (LXFL 529) was 93.3 µM (inactive). The GI50 (M19-MEL) was > 100 µM (inactive), the GI50 (XF498) was 32.1 µM (inactive) and the GI50 (SNB-78) was > 100 µM (inactive).
`CC/C(=C(\c1ccccc1)c1ccc(OCC[N+](C)(C)C)cc1)c1ccccc1` [TAMOXIFEN METHYL IODIDE] was tested, and the GI50 (DMS-114) was 9.12 µM (inactive), the GI50 (RXF 631) was 19.6 µM (inactive) and the GI50 (DMS-273) was 6.4 µM (inactive). The GI50 (HOP-18) was 13.1 µM (inactive), the GI50 (KM-20L2) was 15.7 µM (inactive) and the GI50 (LXFL 529) was 10 µM (inactive). For the same molecule, the GI50 (M19-MEL) was 11.6 µM (inactive) and the GI50 (SNB-78) was 12.2 µM (inactive).
For `Cc1ccc2c(c1)-c1c3c(nn1C)-c1ccccc1SC3O2` (stereo not drawn), the GI50 (DMS-114) was 32.3 µM (inactive), the GI50 (DMS-273) was 55.5 µM (inactive) and the GI50 (HOP-18) was 8.43 µM (inactive). The GI50 (KM-20L2) was 87.7 µM (inactive), the GI50 (LXFL 529) was 30.7 µM (inactive) and the GI50 (M19-MEL) was 81.3 µM (inactive). The GI50 (XF498) was 23.4 µM (inactive) and the GI50 (SNB-78) was > 100 µM (inactive).
`N#CC1(C#N)C2C=CC(c3coc4cccc2c34)C1(C#N)C#N` (stereo not drawn) was tested, and the GI50 (DMS-114) was 5.11 µM (inactive), the GI50 (DMS-273) was 16.7 µM (inactive) and the GI50 (HOP-18) was 16.6 µM (inactive). For the same molecule, the GI50 (KM-20L2) was 18.5 µM (inactive), the GI50 (LXFL 529) was 8.87 µM (inactive) and the GI50 (M19-MEL) was 3.05 µM (inactive). For the same molecule, the GI50 (XF498) was 4.99 µM (inactive) and the GI50 (SNB-78) was 15.8 µM (inactive).
`COc1ccc(C(C2=C(C)C(=O)c3ccccc3C2=O)c2ccc(C(C)C)cc(=O)c2O)cc1` (stereo not drawn) was tested, and the GI50 (DMS-114) was 2.82 µM (inactive), the GI50 (DMS-273) was 2.23 µM (inactive) and the GI50 (LXFL 529) was 4.06 µM (inactive). The GI50 (M19-MEL) was 2.22 µM (inactive), the GI50 (XF498) was 0.685 µM (active) and the GI50 (SNB-78) was 5.41 µM (inactive).
For `Cc1ccc(-c2cc(-c3ccco3)nc(N)n2)o1`, the GI50 (DMS-273) was > 100 µM (inactive), the GI50 (KM-20L2) was > 100 µM (inactive) and the GI50 (LXFL 529) was > 100 µM (inactive). The GI50 (XF498) was > 100 µM (inactive) and the GI50 (SNB-78) was > 100 µM (inactive).
`CCCCCCCCCCCCCCCC(=O)OCC1OC(N2C(=O)/C(=N\NC(N)=S)c3ccc([N+](=O)[O-])cc32)C(OC(C)=O)C1OC(C)=O` (stereo not drawn) was tested, and the GI50 (DMS-114) was 66.7 µM (inactive), the GI50 (RXF 631) was > 100 µM (inactive) and the GI50 (DMS-273) was > 100 µM (inactive). For the same molecule, the GI50 (HOP-18) was > 100 µM (inactive), the GI50 (KM-20L2) was 57.3 µM (inactive) and the GI50 (LXFL 529) was 38.7 µM (inactive). For the same molecule, the GI50 (M19-MEL) was > 100 µM (inactive), the GI50 (XF498) was > 100 µM (inactive) and the GI50 (SNB-78) was > 100 µM (inactive).
For `OC(c1ccccc1)(c1ccccc1)c1ccccn1`, the GI50 (DMS-114) was 72.9 µM (inactive), the GI50 (RXF 631) was > 100 µM (inactive) and the GI50 (DMS-273) was > 100 µM (inactive). For the same molecule, the GI50 (HOP-18) was > 100 µM (inactive), the GI50 (KM-20L2) was > 100 µM (inactive) and the GI50 (LXFL 529) was > 100 µM (inactive). The GI50 (M19-MEL) was > 100 µM (inactive), the GI50 (XF498) was > 100 µM (inactive) and the GI50 (SNB-78) was > 100 µM (inactive).
For `CCOC(=O)C/N=c1\nc(SC)sc2c(C(=O)OCC)nc(Sc3ccccc3)n12`, the GI50 (DMS-114) was 62.7 µM (inactive), the GI50 (RXF 631) was 25.3 µM (inactive) and the GI50 (HOP-18) was > 100 µM (inactive). For the same molecule, the GI50 (KM-20L2) was > 100 µM (inactive), the GI50 (LXFL 529) was 14.8 µM (inactive) and the GI50 (M19-MEL) was 34 µM (inactive). For the same molecule, the GI50 (XF498) was 41.2 µM (inactive).
For `COc1cc(/C=C/C(=O)c2sc(-n3nc(-c4ccccc4)cc3-c3ccccc3)nc2C)ccc1O`, the GI50 (DMS-114) was 5.35 µM (inactive), the GI50 (RXF 631) was > 100 µM (inactive) and the GI50 (DMS-273) was > 100 µM (inactive). The GI50 (HOP-18) was 26.5 µM (inactive), the GI50 (KM-20L2) was > 100 µM (inactive) and the GI50 (M19-MEL) was > 100 µM (inactive). The GI50 (SNB-78) was > 100 µM (inactive).

From ChEMBL document CHEMBL1201862, “PubChem BioAssay data set” (2004)
